Test results from patent publication US20070099938A1, “Antistress drug and medical use thereof” (ONO PHARMACEUTICAL CO., LTD., priority 2003, published 2007).

Target: T1, MBR (Rattus norvegicus, UniProt P16257)
T1 construct: from tissue; host or cells: whole brain without cerebellum of male Wistar rats, crude membrane pellet
Assay: Receptor binding experiment ([3H]PK11195 competition, rat brain membrane preparation)
Details: [3H]PK11195 0.5 or 1 nmol/L, Cheng and Prusoff from KD and IC50
Procedure: The affinity of the compounds in the present invention to MBR was determined using rat brain membrane preparation. In addition, the measurement in the present invention was improved the accuracy of measurement and the sensitivity of measurement for evaluating the compounds in the present invention as follows. After male Wister rats were decapitated to extirpate the whole brain and cerebellums were removed. They were homogenized in ice-cold 50 mmol/L Tris-HCL buffer solution (pH 7.4), centrifuged and the obtained pellets were washed. The pellets resuspended and adjusted to about 1 mg/mL were used as rat brain membrane preparations for binding assay. The binding assay were experimented using [^3H]PK11195 as a MBR selective ligand. […]
To determine the amount of total binding in saturation binding experiment, membrane preparations, various concentrations of [^3H]PK11195, final concentration: 0.5 vol % dimethylsulfoxide (DMSO) and 50 mmol/L Tris-HCL buffer solution (pH 7.4) were mixed (total volume 200 μL) and were incubated for 1 hour at room temperature. […] The filter was dried and then the radioactivity on the filter was measured by liquid scintillation counter. The data obtained by the binding experiments were Scatchard analyzed using analysis software, KELL (Ver.6, BIOSOFT) and the dissociation constant (KD value) was determined. […]

Ki [nM] | SMILES
360 | CC(=O)Nc1cccc(-c2ccnc(NC(=O)c3ccccc3)n2)c1 [Example 3(46), N-{4-[3-(acetylamino)phenyl]pyrimidin-2-yl}benzamide]
10 | O=S(=O)(Nc1nccc(-c2cc(OC(F)F)ccc2OC(F)F)n1)c1ccccc1 [Example 5(2), N-{4-[2,5-bis(difluoromethoxy)phenyl]pyrimidin-2-yl}benzenesulfonamide]
